Experimental data reported in patent US9974306B2, “Herbicidal combinations for tolerant soybean cultures” (priority 2012, dated 2018).

How the values were obtained:
GLXMA GM_W336 = assay: Post-emergence greenhouse treatment, visual rating of effect on W336 transgenic (HPPD inhibitor tolerant) soybean; assay type: in vivo; details: for Effect (%): GLXMA GM_W336
Description: (§1) The soybeans were grown under the same conditions as described above. The following three varieties were used in the tests:
(§2) 1) W336—Transgenic soybean plants comprising a chimeric gene encoding a W336 mutant HPPD protein of Pseudomonas fluorescens (U.S. Pat. No. 6,245,968) fused to the optimized transit peptide for chloroplast targeting (U.S. Pat. No. 5,510,471), and under the control of the 35S CaMV promoter (Odell et al., 1985, Nature 313: 810-812) fused to the 5′ enhancer sequence of TEV (Carrington and Freed, 1990, J. Virol. 64: 1590-1597), with as 3′ transcript termination and polyadenylation region that of the CaMV 35S gene (Sanfacon et al., 1991, Genes & Development 5:141-149), abbreviated as “W336 soybean plants” herein. 2) MERLIN—conventional 3) PROTINA—conventional
(§3) Two sets of soybeans reaching different growth stages at application time were prepared: one up to growth stage BBCH 11 (1-2 leaf stage) and the other up to BBCH 13 (3-4 leaf stage). Both soybean sets were treated at the same time (together with the weeds) but they were evaluated separately.
(§4) The applications were performed by post emergence treatments on the planted pots using a spray volume of 300 L water per hectare. The herbicides were applied alone and in combination as in the tables below.
(§5) The trial was conducted in the greenhouse ensuring optimal growing conditions.
(§6) The herbicidal effects were assessed 14 and 24 days following application by visual ratings comparing treated and untreated plants (0%=no effect to 100%=complete die-off).
(§7) The visual ratings are used to calculate interactions between treatments alone and combination treatments according to S. R. Colby, Weeds 15, pages 20 to 22 (1967).

GLXMA Protina = assay: Post-emergence greenhouse treatment, visual rating of effect on conventional soybean PROTINA; assay type: in vivo; details: for Effect (%): GLXMA Protina
Description: as §1, §2, §3, §4, §5, §6, §7

GLXMA Merlin = assay: Post-emergence greenhouse treatment, visual rating of effect on conventional soybean MERLIN; assay type: in vivo; details: for Effect (%): GLXMA Merlin, assessment 24 d
Description: as §1, §2, §3, §4, §5, §6, §7

BRAPP = assay: Post-emergence greenhouse treatment, visual rating of herbicidal effect; assay type: in vivo, Brachiaria platyphylla; details: for Effect (%): BRAPP
Description: (§8) Seeds of grass and broadleaf weeds were sown in pots (diameter: 8 cm) filled with a sandy loam soil. For the herbicide post-emergent treatment, the weeds were grown under optimal conditions up to a growth stage of BBCH 11 (1-2 leaf stage) to 14 (3-4 leaf stage) depending on species. The following weeds were used:
as §4, §5, §6, §7

SETFA = assay: as above; assay type: in vivo, Setaria faberi; details: 1-2 leaf
Description: as §8, §4, §5, §6, §7

SETVI = assay: as above; assay type: in vivo, Setaria viridis; details: 1-2 leaf; for Effect (%): SETVI, assessment 24 d; for Effect: 24 d
Description: as §8, §4, §5, §6, §7

SORHA = assay: as above; assay type: in vivo, Sorghum halepense
Description: as §8, §4, §5, §6, §7

BIDPI = assay: as above; assay type: in vivo, Bidens pilosa
Description: as §8, §4, §5, §6, §7

POLCO = assay: as above; assay type: in vivo, Polygonum convolvulus; details: for Effect (%): POLCO
Description: as §8, §4, §5, §6, §7

EPHHL = assay: as above; assay type: in vivo, Euphorbia heterophylla
Description: as §8, §4, §5, §6, §7

PHBPU = assay: as above; assay type: in vivo, Pharbitis purpurea
Description: as §8, §4, §5, §6, §7

[1] = 1-2 leaf, assessment 24 d, (A1) alone 2.5 g a.i./ha
[2] = 1-2 leaf, assessment 24 d, (A1) alone 5 g a.i./ha
[3] = 1-2 leaf, assessment 24 d, (A1) alone 10 g a.i./ha
[4] = 3-4 leaf, assessment 14 d, (A1) alone 5 g a.i./ha
[5] = 1-2 leaf, 14 d, 20 g a.i./ha alone
[6] = 1-2 leaf, 24 d, 5 g a.i./ha alone
[7] = 1-2 leaf, 24 d, 10 g a.i./ha alone
[8] = 1-2 leaf, 24 d, 20 g a.i./ha alone
[9] = 3-4 leaf, 14 d, 5 g a.i./ha alone
[10] = 3-4 leaf, 14 d, 20 g a.i./ha alone

## CS(=O)(=O)c1ccc(C(=O)C2C(=O)CCCC2=O)c(Cl)c1COCC(F)(F)F [(A1), 2-{2-chloro-4-mesyl-3-[(2,2,2-trifluoroethoxy)methyl]benzoyl}cyclohexane-1,3-dione]
GLXMA GM_W336; [1]
  Effect (%): 15%
GLXMA GM_W336; [2]
  Effect (%): 15%
GLXMA GM_W336; [3]
  Effect (%): 15%
GLXMA GM_W336; [4]
  Effect (%): 20%
GLXMA Protina; [1]
  Effect (%): 65%
GLXMA Protina; [2]
  Effect (%): 75%
GLXMA Protina; [4]
  Effect (%): 55%
GLXMA Merlin; 1-2 leaf, (A1) alone 5 g a.i./ha
  Effect (%): 75%
GLXMA Merlin; 1-2 leaf, (A1) alone 10 g a.i./ha
  Effect (%): 80%
BRAPP; [2]
  Effect (%): 10%
BRAPP; [3]
  Effect (%): 10%
BRAPP; [4]
  Effect (%): 25%
SETFA; SETFA, assessment 24 d, (A1) alone 2.5 g a.i./ha
  Effect (%): 0%
SETVI; (A1) alone 5 g a.i./ha
  Effect (%): 40%
SETVI; (A1) alone 10 g a.i./ha
  Effect (%): 40%
SORHA; SORHA, 1-2 leaf, assessment 24 d, (A1) alone 5 g a.i./ha
  Effect (%): 20%
BIDPI; BIDPI, 3-4 leaf, assessment 14 d, (A1) alone 5 g a.i./ha
  Effect (%): 10%
POLCO; [1]
  Effect (%): 0%
POLCO; [2]
  Effect (%): 0%
POLCO; [4]
  Effect (%): 10%

## CS(=O)(=O)c1ccc(C(=O)C2C(=O)CCCC2=O)c([N+](=O)[O-])c1 [(A2), 2-(4-mesyl-2-nitrobenzoyl)cyclohexane-1,3-dione]
GLXMA GM_W336; [5]
  Effect: 20%
GLXMA GM_W336; [6]
  Effect: 15%
GLXMA GM_W336; [7]
  Effect: 15%
GLXMA GM_W336; [8]
  Effect: 25%
GLXMA GM_W336; [9]
  Effect: 15%
GLXMA GM_W336; [10]
  Effect: 25%
GLXMA Protina; [5]
  Effect: 45%
GLXMA Protina; [6]
  Effect: 15%
GLXMA Protina; [7]
  Effect: 20%
GLXMA Protina; [8]
  Effect: 40%
GLXMA Protina; [10]
  Effect: 50%
GLXMA Merlin; [9]
  Effect: 30%
BRAPP; [5]
  Effect: 50%
BRAPP; [7]
  Effect: 25%
BRAPP; [8]
  Effect: 35%
SETVI; 5 g a.i./ha alone
  Effect: 0%
SORHA; [6]
  Effect: 0%
SORHA; [9]
  Effect: 0%
SORHA; [10]
  Effect: 15%
BIDPI; [8]
  Effect: 20%
EPHHL; [5]
  Effect: 30%
EPHHL; [7]
  Effect: 10%
EPHHL; [8]
  Effect: 10%
PHBPU; [7]
  Effect: 75%
POLCO; [7]
  Effect: 20%
POLCO; [9]
  Effect: 20%
POLCO; [10]
  Effect: 65%

## CS(=O)(=O)c1cc(C(F)(F)F)ccc1C(=O)c1cnoc1C1CC1 [(A4), (5-cyclopropyl-1,2-oxazol-4-yl)(α,α,α-trifluoro-2-mesyl-p-tolyl)methanone]
GLXMA GM_W336; 1-2 leaf, 24 d, 20 g a.i./ha
  Effect: 10%
GLXMA GM_W336; 3-4 leaf, 14 d, 10 g a.i./ha
  Effect: 10%
GLXMA Protina; 1-2 leaf, 24 d, 20 g a.i./ha
  Effect: 75%
GLXMA Protina; 3-4 leaf, 14 d, 10 g a.i./ha
  Effect: 35%
BRAPP; 3-4 leaf, 14 d, 10 g a.i./ha
  Effect: 15%
SETVI; 20 g a.i./ha
  Effect: 10%
SORHA; 1-2 leaf, 24 d, 20 g a.i./ha
  Effect: 40%
PHBPU; 3-4 leaf, 14 d, 10 g a.i./ha
  Effect: 40%

## Cc1c(C(=O)c2cnn(C)c2O)ccc(S(C)(=O)=O)c1C1=NOCC1 [(A5), [3-(4,5-dihydro-1,2-oxazol-3-yl)-4-mesyl-o-tolyl](5-hydroxy-1-methylpyrazol-4-yl)methanone]
GLXMA GM_W336; 1-2 leaf, 24 d, 1.5 g a.i./ha
  Effect: 15%
GLXMA GM_W336; 3-4 leaf, 14 d, 3 g a.i./ha
  Effect: 30%
GLXMA GM_W336; 3-4 leaf, 24 d, 3 g a.i./ha
  Effect: 30%
GLXMA Protina; 3-4 leaf, 14 d, 3 g a.i./ha
  Effect: 50%
GLXMA Protina; 3-4 leaf, 24 d, 3 g a.i./ha
  Effect: 50%
GLXMA Merlin; 1-2 leaf, 24 d, 1.5 g a.i./ha
  Effect: 55%
SETFA; 24 d, 1.5 g a.i./ha
  Effect: 30%
SORHA; 3-4 leaf, 14 d, 3 g a.i./ha
  Effect: 15%
SORHA; 3-4 leaf, 24 d, 3 g a.i./ha
  Effect: 10%
BIDPI; 3-4 leaf, 14 d, 3 g a.i./ha
  Effect: 25%
BIDPI; 3-4 leaf, 24 d, 3 g a.i./ha
  Effect: 10%
PHBPU; 1-2 leaf, 24 d, 1.5 g a.i./ha
  Effect: 30%

## COCCOCc1nc(C(F)(F)F)ccc1C(=O)C1=C(O)C2CCC(C2)C1=O (stereo not drawn) [(A6), 4-hydroxy-3-{2-[(2-methoxyethoxy)methyl]-6-(trifluoromethyl)-3-pyridylcarbonyl}bicyclo[3.2.1]oct-3-en-2-one]
GLXMA GM_W336; 1-2 leaf, 14 d, 5 g a.i./ha
  Effect: 5%
GLXMA GM_W336; 3-4 leaf, 14 d, 10 g a.i./ha
  Effect: 25%
GLXMA GM_W336; 3-4 leaf, 14 d, 20 g a.i./ha
  Effect: 30%
GLXMA GM_W336; 3-4 leaf, 24 d, 10 g a.i./ha
  Effect: 25%
GLXMA GM_W336; 3-4 leaf, 24 d, 20 g a.i./ha
  Effect: 30%
GLXMA Protina; 1-2 leaf, 14 d, 5 g a.i./ha
  Effect: 50%
GLXMA Protina; 3-4 leaf, 14 d, 10 g a.i./ha
  Effect: 45%
GLXMA Protina; 3-4 leaf, 14 d, 20 g a.i./ha
  Effect: 60%
GLXMA Merlin; 3-4 leaf, 24 d, 10 g a.i./ha
  Effect: 50%
GLXMA Merlin; 3-4 leaf, 24 d, 20 g a.i./ha
  Effect: 50%
BRAPP; 3-4 leaf, 14 d, 10 g a.i./ha
  Effect: 15%
BRAPP; 3-4 leaf, 14 d, 20 g a.i./ha
  Effect: 25%
BRAPP; 3-4 leaf, 24 d, 20 g a.i./ha
  Effect: 15%
SETFA; 14 d, 5 g a.i./ha
  Effect: 15%
SORHA; 1-2 leaf, 14 d, 5 g a.i./ha
  Effect: 0%
BIDPI; 3-4 leaf, 24 d, 20 g a.i./ha
  Effect: 30%
EPHHL; 3-4 leaf, 24 d, 10 g a.i./ha
  Effect: 40%
POLCO; 3-4 leaf, 14 d, 10 g a.i./ha
  Effect: 50%
POLCO; 3-4 leaf, 14 d, 20 g a.i./ha
  Effect: 50%
POLCO; 3-4 leaf, 24 d, 10 g a.i./ha
  Effect: 35%
